Experiments:
Conditions in all cases: 10 μM, 48 hours
[1] = tested on: CCRF-CEM; test: NCI screen antiproliferative activity, sulforhodamine B, Leukemia panel; type: cell-based, human
Method: (§1) The antiproliferative activity of compounds were determined in the National Cancer Institute (NCI) screen (Drug. Dev. Res. 1995, 34, 91-109; J. Natl. Cancer Inst. 1990, 82, 1107-1112; Drug Dev. Res. 1995, 34, 91-109). For certain compounds, cells of approximately 60 different human cancer cell lines were incubated for 48 hours with five 10-fold dilutions of the tested compounds starting from 100 μM and then treated with sulforhodamine B dye. For other compounds, cells of approximately 60 different human cancer cell lines were incubated for 48 hours with a concentration of 10 μM test compound. The ratios of recorded optical densities relative to that of the control were plotted as a function of the common logarithm of the tested compound concentrations or growth percent (for single concentration tests). The interpolation between the points located above and below the 50% percentage growth provided 50% growth inhibition (GI50) values. Total growth inhibition (TGI) and 50% lethal concentrations (LC50) were also calculated using reported methods. A “-” means not tested and/or not-determined.

[2] = tested on: HL-60(TB); test: as above; type: cell-based, human
Method: as §1

[3] = tested on: K-562; test: as above; type: cell-based, human
[4] = tested on: MOLT-4; test: as above; type: cell-based, human
[5] = tested on: RPMI-8226; test: as above; type: cell-based, human
[6] = tested on: SR; test: as above; type: cell-based, human
[7] = tested on: COLO 205; test: NCI screen antiproliferative activity, sulforhodamine B, Colon Cancer panel; type: cell-based, human
[8] = tested on: KM12; test: as above; type: cell-based, human
[9] = tested on: SW-620; test: as above; type: cell-based, human
[10] = tested on: LOX IMVI; test: NCI screen antiproliferative activity, sulforhodamine B, Melanoma panel; type: cell-based, human
[11] = tested on: MALME-3M; test: as above; type: cell-based, human
[12] = tested on: SK-MEL-5; test: as above; type: cell-based, human
[13] = tested on: NCI/ADR-RES; test: NCI screen antiproliferative activity, sulforhodamine B, Ovarian Cancer panel; type: cell-based, human
Method: as §1

[14] = tested on: A498; test: NCI screen antiproliferative activity, sulforhodamine B, Renal Cancer panel; type: cell-based, human
Method: as §1

[15] = tested on: HS 578T; test: NCI screen antiproliferative activity, sulforhodamine B, Breast Cancer panel; type: cell-based, human
[16] = tested on: MDA-MB-468; test: as above; type: cell-based, human
Method: as §1

[17] = tested on: A549/ATCC
[18] = tested on: HOP-62
[19] = tested on: HOP-92
[20] = tested on: NCI-H226
[21] = tested on: NCI-H23
[22] = tested on: NCI-H322M
[23] = tested on: NCI-H460
[24] = tested on: NCI-H522
[25] = tested on: HCC-2998
[26] = tested on: HCT-116
[27] = tested on: HCT-15
[28] = tested on: HT29
[29] = tested on: SF-268
[30] = tested on: SF-539
[31] = tested on: SNB-19
[32] = tested on: SNB-75
[33] = tested on: M14
[34] = tested on: SK-MEL-28
[35] = tested on: UACC-62
[36] = tested on: IGROV1
[37] = tested on: OVCAR-3
[38] = tested on: OVCAR-4
[39] = tested on: OVCAR-5
[40] = tested on: OVCAR-8
[41] = tested on: SK-OV-3
[42] = tested on: 786-0
[43] = tested on: ACHN
[44] = tested on: CAKI-1
[45] = tested on: RXF 393
[46] = tested on: SN12C
[47] = tested on: UO-31
[48] = tested on: PC-3
[49] = tested on: DU-145
[50] = tested on: MCF7
[51] = tested on: MDA-MB-231/ATCC
[52] = tested on: MDA-MB-435
[53] = tested on: BT-549
[54] = tested on: T-47D
[55] = tested on: TK-10

Compound: CCCCCN(CCCCC)CCC[C@@H](C)[C@H]1CC[C@H]2[C@@H]3[C@H](OCCCN)C[C@@H]4C[C@H](OCCCN)CC[C@]4(C)[C@H]3C[C@H](OCCCN)[C@]12C [CSA-90]
- Growth Percent [1]: 15.29%
- Growth Percent [2]: −16.84%
- Growth Percent [3]: −19.42%
- Growth Percent [4]: 41.11%
- Growth Percent [5]: −17.73%
- Growth Percent [6]: 19.21%
- Growth Percent [7]: 52.08%
- Growth Percent [8]: 22.46%
- Growth Percent [9]: 45.90%
- Growth Percent [10]: 3.00%
- Growth Percent [11]: 62.21%
- Growth Percent [12]: 25.14%
- Growth Percent [13]: 76.04%
- Growth Percent [14]: 92.77%
- Growth Percent [15]: 66.91%
- Growth Percent [16]: 71.06%
- Growth Percent [17]: 55.21%
- Growth Percent [18]: 48.28%
- Growth Percent [19]: 50.03%
- Growth Percent [20]: 75.25%
- Growth Percent [21]: 49.16%
- Growth Percent [22]: 24.61%
- Growth Percent [23]: 45.20%
- Growth Percent [24]: 28.85%
- Growth Percent [25]: 59.63%
- Growth Percent [26]: 22.71%
- Growth Percent [27]: 72.31%
- Growth Percent [28]: 24.49%
- Growth Percent [29]: 87.47%
- Growth Percent [30]: −21.94%
- Growth Percent [31]: 61.03%
- Growth Percent [32]: 70.61%
- Growth Percent [33]: 42.81%
- Growth Percent [34]: 27.91%
- Growth Percent [35]: 13.55%
- Growth Percent [36]: 29.55%
- Growth Percent [37]: 107.13%
- Growth Percent [38]: 85.16%
- Growth Percent [39]: 66.15%
- Growth Percent [40]: 55.32%
- Growth Percent [41]: 93.22%
- Growth Percent [42]: 61.11%
- Growth Percent [43]: 54.72%
- Growth Percent [44]: 75.81%
- Growth Percent [45]: 87.11%
- Growth Percent [46]: 54.27%
- Growth Percent [47]: 65.22%
- Growth Percent [48]: 80.53%
- Growth Percent [49]: 76.50%
- Growth Percent [50]: 74.77%
- Growth Percent [51]: 36.97%
- Growth Percent [52]: −13.61%
- Growth Percent [53]: 54.97%
- Growth Percent [54]: 68.11%

Compound: CCCCCCCCCCCCCCCCNCCCC(C)C1CCC2C3C(OCCCN)CC4CC(OCCCN)CCC4(C)C3CC(OCCCN)C12C.Cl.Cl.Cl.Cl (stereo not shown) [CSA-92]
- Growth Percent [1]: −45.52%
- Growth Percent [2]: 4.50%
- Growth Percent [3]: −34.68%
- Growth Percent [4]: −33.70%
- Growth Percent [5]: −15.39%
- Growth Percent [6]: 2.63%
- Growth Percent [7]: −40.80%
- Growth Percent [8]: −24.28%
- Growth Percent [9]: −25.31%
- Growth Percent [10]: −60.40%
- Growth Percent [11]: −60.74%
- Growth Percent [12]: 3.14%
- Growth Percent [13]: −60.60%
- Growth Percent [14]: −5.88%
- Growth Percent [15]: −34.00%
- Growth Percent [16]: −55.21%
- Growth Percent [17]: −57.98%
- Growth Percent [18]: −49.53%
- Growth Percent [19]: −33.16%
- Growth Percent [20]: −1.42%
- Growth Percent [21]: −39.72%
- Growth Percent [22]: −76.83%
- Growth Percent [23]: −45.47%
- Growth Percent [24]: −43.60%
- Growth Percent [25]: −32.41%
- Growth Percent [26]: −16.64%
- Growth Percent [27]: 7.08%
- Growth Percent [28]: −40.97%
- Growth Percent [29]: −38.18%
- Growth Percent [30]: −68.05%
- Growth Percent [31]: −66.56%
- Growth Percent [32]: −64.78%
- Growth Percent [33]: −28.70%
- Growth Percent [34]: −64.73%
- Growth Percent [35]: −64.22%
- Growth Percent [36]: −41.76%
- Growth Percent [37]: −10.46%
- Growth Percent [38]: −37.10%
- Growth Percent [39]: −3.67%
- Growth Percent [40]: −48.90%
- Growth Percent [41]: −45.67%
- Growth Percent [42]: −43.08%
- Growth Percent [43]: −26.45%
- Growth Percent [44]: −70.80%
- Growth Percent [45]: −41.21%
- Growth Percent [46]: −82.86%
- Growth Percent [55]: −60.33%
- Growth Percent [47]: −52.51%
- Growth Percent [48]: −14.45%
- Growth Percent [49]: −82.24%
- Growth Percent [50]: −44.27%
- Growth Percent [51]: −98.22%
- Growth Percent [52]: −28.31%
- Growth Percent [53]: −26.02%
- Growth Percent [54]: −20.87%
